Test results from US12636446B2, “Devices for evaporation and inhalation of nicotine” (Emplicure AB, priority 2016, dated 2026).
Where a name gives a salt, the structure may show the parent alone. Read-outs that look alike come from different tables or passages of the source.

Legend:
[1] = Text: (§1) Calcium sulphate alpha hemihydrate (CaS) was obtained from Bo Ehrlander AB (Sweden). Clonidine hydrochloride was obtained from PCAS (Finland). Shaped silicon rubbers were used as molds for coins (diameter: 12 mm, thickness: 2 mm). The calcium sulphate was mixed with powder of Clonidine hydrochloride (0.07 g Clonidine hydrochloride/g calcium sulphate) and deionised water (Liquid/Powder ratio of 0.4 (w/w)) to form a homogenous paste, which was used to fill the rubber molds. Once the paste had been applied, the molds were set to dry for at least 12 h under ambient conditions.
The oven temperature was set to approximately 250° C.
(§2) Each coin was weighed and immersed into a beaker containing 200 ml of deionised water. […] The sample was characterized by Shimadzu LC-2030 (Germany) HPLC system with a Genesis C18 analytical column 4 μm (100×2.1 mm i.d.) with a mobile phase of acetonitrile/phosphoric acid, pH 3 (11/89). The wavelength was set to 220 nm.
The reference samples represent the amount of clonidine hydrochloride mg/g calcium sulphate that was loaded before heat treatment.

[2] = calcium sulphate coins, solution 50 μl, 5 mg/ml dispensed; oven approximately 250° C., 0 to 15 minutes
Method: as §1, with “with” for “with powder of Clonidine hydrochloride (0.07 g Clonidine hydrochloride/g calcium sulphate) and”, “When” for “Once”, “was” for “had been”
Clonidine hydrochloride solution (50 μl, 5 mg/ml) was dispensed onto the calcium sulphate coins. When the solution was applied, the coins were set to dry for at least 12 h under ambient conditions.
(§3) The temperature was set to approximately 250° C.
as §2
The reference samples represent the amount of clonidine hydrochloride that was loaded before heat treatment.

[3] = Liquid/Powder ratio 0.4 (w/w)
Method: Calcium sulphate alpha hemihydrate (CaS) was obtained from Bo Ehrlander AB (Sweden). Shaped silicon rubbers were used as molds for coins (diameter: 12 mm, thickness: 2 mm). The calcium sulphate was mixed with a nicotine solution with a concentration of 5 or 20 mg/ml of nicotine (Liquid/Powder ratio of 0.4 (w/w)) to form a homogenous paste, which was filled in the rubber molds. Once the paste was applied, the molds were set to dry for at least 12 h under ambient conditions.
The temperature was set to approximately 200° C.
The sample was characterized by UV-spectrophotometer at a wavelength of 219 nm. The amount nicotine in the samples were then calculated.

[4] = calcium sulphate coins, nicotine solution 50 μl, 18 mg/ml dispensed; heated about 1 minute or about 5 minutes
Text: Calcium sulphate coins were obtained as described in Example 3. For the indirect induction test a magnet was molded into the coin. Nicotine and nicotine solutions were supplied and applied, and nicotine levels were detected as described in Example 3.
Metal plate for induction cooker was obtained from Haneström (Sweden). Induction cooker Wilfa ICP-2000 was obtained from Media Markt (Sweden). Magnets (10*1 mm, Samarium Cobalt magnets, 0.4 kg pull) were obtained from first4magnets (UK). IR-thermometer (MS6520A) was obtained from Mastech (USA).
Heat treatment by indirect induction was carried out by placing a metal plate onto the induction cooker. The ceramic coins containing a magnet was applied onto the metal plate and heated on maximum effect (exact temperature was not measured; see FIG. 10).

[5] = calcium sulphate rods soaked 24 hours in pure nicotine; heated 5*10 sec., maximum temperature 315° C.
Text: Aluminium oxide ceramic rods and calcium sulphate rods were obtained as described in Example 3. Nicotine and nicotine solutions were supplied and applied, and nicotine levels were detected as described in Example 3.
Samples were heated using a prototype e-cigarette device (X-Cube II, Smoke) obtained from Devex Mekatronik AB (Sweden). The device is derived from the commercially available e-cigarette X-Cube.
The sample in the device was heated up by a coil that is wrapped around the sample.
The end of the device was connected to a vial via a silicon hose. The vial contained 1 ml of deionised water. To simulate smoking a rod was put into the device and puffing was performed. Puffing involves a sequence of 5 puffs that are each 10 seconds long. After puffing, the hose was removed and flushed with the water. The water was analysed for concentration of nicotine.

[6] = for amount of nicotine detected in the reference sample / nicotine detected in coins after heating: pure nicotine (20 mg) dispensed; for amount of nicotine detected in the reference sample: not heated
[7] = Oven heating of calcium sulphate coins pre-loaded with sumatriptan succinate; detection by UV; type: physicochemical; settings: 0.07 g sumatriptan succinate/g calcium sulphate, oven approximately 250° C.
Method: as §3

[8] = Oven heating of Al2O3 rods soaked in sumatriptan succinate solution; detection by UV; settings: Al2O3 rods soaked in 20 mg/ml solution for 24 hours
Method: The application of sumatriptan succinate was achieved by soaking the Al2O3 rods in a sumatriptan succinate solution with a concentration of 20 mg/ml. The volume of solution was around 100 μl but was not measured precisely; the volume was sufficient to fully immerse the rods. The samples were soaked for 24 hours in room temperature and thereafter the samples were dried for 24 hours, before heat treatment and/or analysis.
The temperature was set to approximately 300° C. […] The rods were heated in the oven for a period of time ranging from 0 to 15 minutes.
All sumatriptan release tests were carried out according to the same analytical method. The rods were immersed in a beaker containing 50 ml of deionised water. After 24 hours a sample of the water was taken out and filtered (pore size: 0.2 μm). The sample was characterized by UV-spectrophotometry at a wavelength of 282 nm. The amount sumatriptan succinate in the samples was then calculated. The reference samples represent the amount of sumatriptan succinate that was loaded before heat treatment. The difference between the amount of sumatriptan succinate detected in the heat-treated samples and the reference sample represents the amount of sumatriptan succinate that evaporated during the heat treatment.

[9] = calcium sulphate rods soaked in pure nicotine, oven approximately 200° C.

With `Clc1cccc(Cl)c1N=C1NCCN1` [clonidine hydrochloride] the “amount of clonidine hydrochloride contained in coin” value ([1]; calcium sulphate coins pre-loaded, 0.07 g clonidine hydrochloride/g calcium sulphate, coin approximately 0.3 g) was “approximately 17 mg”, the “time within which almost all of the clonidine hydrochloride was released when heated” value ([1]; pre-loaded calcium sulphate coins, oven approximately 250° C.) was at most 15 min and the “amount of clonidine hydrochloride present in the coins during heating” value [2] was “decreased significantly”.

For `CN1CCCC1c1cccnc1` (stereo not drawn) [nicotine], the “amount of nicotine contained in coin” value ([3]; calcium sulphate coins mixed with 5 mg/ml nicotine solution) was “approximately 180 μg”, the “amount of nicotine contained in coin” value ([3]; calcium sulphate coins mixed with 20 mg/ml nicotine solution) was about 390 µg and the “nicotine release on induction heating, unheated plate” value [4] was “Most of the nicotine was released within the first minute”. The “nicotine release on heat treatment in e-cigarette device” value [5] was “a heat treatment in the device will result in a nicotine release”, the “time within which almost all of the nicotine was released when heated” value ([6]; aluminium oxide rods soaked in 6 mg/ml nicotine solution (diluted e-juice) 24 hours, oven approximately 200° C.) was 5 to 10 min and the “amount of nicotine absorbed by rod” value ([6]; aluminium oxide rods soaked in 6 mg/ml nicotine solution for 24 hours) was “approximately 135 μg nicotine/rod”. For the same molecule, the “amount of nicotine detected in the reference sample” value ([6]; calcium sulphate coins) was “lower than 20 mg”, the “nicotine detected in coins after heating” value ([6]; calcium sulphate coins, oven approximately 200° C.) was “lower release of nicotine was detected after heating” and the “amount of nicotine absorbed by rod” value ([6]; calcium sulphate rods soaked in pure nicotine for 24 hours) was “approximately 20 mg nicotine/rod”. For the same molecule, the “nicotine release during heating” value [6, 9] was “Most of the nicotine was released”, the “nicotine release, 5 min of heating compared to 1 min of heating” value [6, 9] was “a higher amount was released during 5 min of heating compared to 1 min of heating” and the “amount of nicotine detected in the reference sample” value ([6]; geopolymer coins) was “about 16 mg”. For the same molecule, the “nicotine detected in coins after heating” value ([6]; geopolymer coins, oven approximately 200° C.) was “lower release of nicotine was detected after heating”.

With `CNS(=O)(=O)Cc1ccc2[nH]cc(CCN(C)C)c2c1` [sumatriptan succinate] the “time within which almost all of the Sumatriptan succinate was released when heated” value [7] was at most 15 min and the “amount of sumatriptan succinate absorbed by rod” value [8] was “approximately 1 mg sumatriptan succinate/rod”.
